Marks after values point to notes of the source that are not given here.
Legend:
[1] = system: fibrin fiber network of healthy platelet rich plasma (PRP); details: PRP exposed to compound, then thrombin; SEM
Method: SEM-Based Analyses. […] Blood was obtained from three healthy, female subjects after written, informed consent was obtained. […] Their plasma ferritin (range 2.6-3.3 g/L), serum ferritin (range 13-28 ng/ml) and iron saturation of ferritin (range 19-33%) were normal. As noted previously, forty ml of whole blood was obtained, anticoagulated (sodium citrate, 9 parts blood to 1 part 0.105M sodium citrate), and platelet rich plasma (PRP) was generated by centrifugation of blood at 1250×g for 2 min (Nielsen et al., Blood Coagul Fibrinolysis 25:695-702 (2014); Nielsen et al., Blood Coagul Fibrinolysis 25:845-50 (2014)). […]
The cover slips were placed in 0.075 M PBS on a shaker and washed for 20 minutes. […] Once the samples had been coated they were analyzed with a scanning electron microscope (Zeiss ULTRA plus FEG SEM, Carl Zeiss Microscopy GmbH, Jena, Germany).
After visualization of the fibrin networks with SEM, micrographs were obtained at 40,000 times machine magnification. […] One fiber was randomly selected out of every block of the grid, ensuring that fiber measurements were not duplicated, and that fibers were systematically assessed to prevent observer bias (Pretorius Ultrastruct Pathol 35(4):150-154 (2001); Pretorius et al., Blood Coagul Fibrinolysis 22(8):696-700 (2011)). […] From each sample, 50 fibers were measured.

[2] = system: normal individual plasma; assay: Coagulation kinetic analyses and COHF assay (TTG increase after CORM-2); assay type: biochemical, human; details: CORM-2 100 μM; based on individual, not group mean responses
Method: Plasma was rapidly thawed at 37° C. on the day of experimentation. The final volume for all subsequently described plasma sample mixtures was 359.4 μl. […] Plasma sample mixtures were placed in a disposable cup in a computer-controlled thrombelastograph® hemostasis system (Model 5000, Haemoscope Corp., Niles, Ill., USA), with addition of CaCl2 as the last step to initiate clotting. Data were collected at 37° C. for 15 min. The following elastic modulus-based parameters previously described (Benk et al., Eur J Cardio-Thorac Surg 44:551-558 (2013); Owens Clin Biochem 43:1183-1188 (2010); Balla et al., Antioxid Redox Signal 9:2119-2137 (2007); Nielsen et al., Blood Coagul Fibrinolysis 20:377-380 (2009); Nielsen et al., Blood Coagul Fibrinolysis 22:443-447 (2011); Nielsen et al., Blood Coagul Fibrinolysis 22:756-759 (2011); Nielsen et al., Blood Coagul Fibrinolysis 24:405-410 (2013)) were determined: time to maximum rate of thrombus generation (TMRTG): this is the time interval (min) observed prior to maximum speed of clot growth; maximum rate of thrombus generation (MRTG): this is the maximum velocity of clot growth observed (dynes/cm^2/sec); and total thrombus generation (TTG, dynes/cm^2), the final viscoelastic resistance observed after clot formation. […]

[3] = system: normal pooled plasma; assay: Effect of FeCl3 and deferoxamine chelation on reaction time (R), thrombelastograph; assay type: biochemical, human; details: FeCl3 10 μM; for reaction time: median (1st, 3rd quartile)
Method: Thrombelastograph-Based Analyses. All thrombelastograph-based experiments were performed at the University of Arizona. Frozen, citrate anticoagulated normal pooled plasma was obtained from a commercial vendor (George King Bio-Medical, Overland Park, Kans., USA) for use in subsequently described experimentation. […] Deferoxamine was obtained from a commercial vendor (Cayman Chemical Company, Ann Arbor, Mich., USA). […] Then, 336 μl of either plasma mixture was placed in a disposable cup in a computer-controlled thrombelastograph® hemostasis system (Model 5000, Haemoscope Corp., Niles, Ill., USA). […] Thus, there were four conditions: no deferoxamine, no FeCl3, (Control), deferoxamine, no FeCl3 (deferoxamine); no deferoxamine, FeCl3 (FeCl3); and finally, FeCl3 followed by deferoxamine (FeCl3+Deferoxamine). There were six replicates per condition. Thereafter, 20 μl of 200 mM CaCl2 was added as the last step to initiate clotting. Data were collected at 37° C. until R was recorded. […] There were six replicates per condition. An aliquot of 340 μl of each of the four conditions was placed into thrombelastographic cups and 20 μl of 200 mM CaCl2 was added to initiate clotting. Data were collected at 37° C. until R was recorded. As R values varied between experiments, and a fixed number of channels were available (n=4), plasma was incubated at room temperature between 45-60 min prior to initiation of coagulation. The third series of experiments was designed to decrease incubation time by increasing temperature and deferoxamine concentration without compromising the ability to detect iron-mediated changes in R values. […] The mixtures were mixed with the disposable pin, and allowed to incubate for 15 min at 37° C. Clotting was initiated by addition of 20 μl of 200 mM CaCl2 and data collected at 37° C. until R was recorded. A total of six replicates of the four experimental conditions were analyzed.

[4] = system: normal pooled plasma; assay: Concentration-response of FeCl3 on reaction time (R), ROTEM delta thromboelastometry; assay type: biochemical, human; details: 2-10 μM FeCl3
Method: First, a concentration-response relationship of iron concentration and reaction time (R, defined as 2 mm clot strength; this is also known as clotting time in thromboelastometric analyses) was determined. The rationale for using R time was that it is the first indication of the onset of coagulation, is used in both thrombelastographic and thromboelastometric systems, and was anticipated to quickly and easily detect iron-mediated enhancement of coagulation based on previous work. This concentration-response relationship was generated with a ROTEM® delta hemostasis system (Tem Innovations GmbH, Munich, Germany) generously provided by the manufacturer. All disposable cups/pins and reagents were also provided by Tem Innovations. Plasma was rapidly thawed at 37° C. on the day of experimentation. […] After 3 min or more of incubation at room temperature, 320 μl of these iron-exposed plasmas were subsequently placed in a disposable cup, with subsequent addition of 20 μl of 200 mM CaCl2. The complete sample was mixed by pipette once, and the reaction commenced at 37° C. The R values were subsequently recorded.

Row | SMILES | decrease in average fibrin fiber width vs normal subjects (105±3 nm) [1] [%] | normal individual increase in TTG secondary to CORM-2 exposure [2] [%] | FeCl3-mediated decrease in R values ([3]; 45-60 minute incubation) [%] | reduction in R values compared to control plasma values ([3]; 3 min incubation series) [%] | reaction time ([3]; Fifteen min incubation at 37° C., deferoxamine 2.78 mM) | reaction time ([3]; Forty-five to sixty min incubation at room temperature, deferoxamine 1 mM) | reaction time ([3]; Three min incubation at room temperature, deferoxamine 1 mM) | R values vs plasma without FeCl3 addition [4]
1 | [C-]#[O+].[C-]#[O+].[C-]#[O+].[C-]#[O+].[C-]#[O+].[C-]#[O+].[Cl][Ru][Cl].[Cl][Ru][Cl] [CORM-2, tricarbonyldichlororuthenium (II) dimer] | 43 | 89 | – | – | – | – | – | –
2 | [Cl][Fe]([Cl])[Cl] [FeCl3, ferric chloride] | 58 | – | 72 | 54 | 4.6 (4.4, 6.0)*† min | 5.0 (4.9, 5.1)*† min | 5.9 (5.8, 6.4)*† min | significantly smaller

— patent US10012659B2, “Methods for diagnosing iron-related pathologies” (priority 2014, dated 2018)
